The data set can be described thus: solvent given as SMILES.

Molecules are shown by their SMILES.

As to `NS(=O)(=O)c1ccc(N2N=C(c3ccc(O)cc3)CC2c2ccccc2)cc1` (centres undefined), the fluorescence lifetime reads like this: (in C1CCOC1) 2.31 ns; (in C1COCCO1) 2.36 ns; (in CC#N) 2.38 ns; (in CC(C)O) 1.86 ns; (in CCO) 1.93 ns; (in CCOC(C)=O) 2.27 ns. Also, the fluorescence lifetime by setting is: (in CN(C)C=O) 2.4 ns; (in CO) 1.62 ns; (in CS(C)=O) 2.45 ns; (in O) 3.16 ns.
Consider `O=C(O)CCCCCn1c2ccccc2c(=O)c2cc(Br)ccc21`, for which the fluorescence lifetime (in O) worked out at 8.6 ns.
`O=Cc1ccc(C#CC(C#Cc2ccc(C=O)o2)=Cc2ccc(C=C(C#Cc3ccc(C=O)o3)C#Cc3ccc(C=O)o3)cc2)o1` registered a fluorescence lifetime (in ClC(Cl)Cl) of 0.6 ns.
For the setting “in ClC(Cl)Cl”, `COc1ccc(N(c2ccc(OC)cc2)c2ccc(-c3ccc(-c4ccc(-c5ccc(-c6ccc(N(c7ccc(OC)cc7)c7ccc(OC)cc7)cc6)s5)c5nsnc45)s3)cc2)cc1` returned a fluorescence lifetime of 4.9 ns.
As to `CCCCCCN1C(=O)C(c2ccc(-n3c4ccccc4c4ccccc43)cc2)=C(c2ccc(-n3c4ccccc4c4ccccc43)cc2)C1=O`, the fluorescence lifetime reads like this: (in ClC(Cl)Cl) 5.4 ns; (in c1ccc2c(c1)c1ccccc1n2-c1ccc(-c2ccc(-n3c4ccccc4c4ccccc43)cc2)cc1) 4 ns.
`COC(=O)C(Cc1ccc2oc(-c3ccc(N(C)C)cc3)nc2c1)NC(=O)OC(C)(C)C` (centres undefined) displayed a fluorescence lifetime (in C1CCCCC1) of 1.02 ns; a fluorescence lifetime (in C1CCOC1) of 1.21 ns; a fluorescence lifetime (in C1COCCO1) of 1.21 ns; a fluorescence lifetime (in CC1CCCO1) of 1.15 ns; a fluorescence lifetime (in CC1COC(=O)O1) of 1.41 ns; a fluorescence lifetime (in CC#N) of 1.32 ns. The fluorescence lifetime (in CC(C)=O) came out at 1.26 ns; the fluorescence lifetime (in CC(C)CC(C)(C)C) was determined as 1.02 ns; the fluorescence lifetime (in CC(C)CO) was 1.29 ns; the fluorescence lifetime (in CC(C)O) was found to be 1.3 ns; the fluorescence lifetime (in CC(C)OC(C)C) was found to be 1.2 ns; the fluorescence lifetime (in CC(O)CO) is 1.32 ns. Further, the fluorescence lifetime runs as follows: (in CCC(C)CC) 1 ns; (in CCCCC) 1.12 ns; (in CCCCCC) 1.04 ns; (in CCCCCCCCC) 1.08 ns; (in CCCCCCCCCC) 1.09 ns; (in CCCCCCCO) 1.3 ns. The fluorescence lifetime worked out at 1.32 ns (in CCCCCCO); 1.25 ns (in CCCCCO); 1.29 ns (in CCCCO); 1.35 ns (in CCO); 1.19 ns (in CCOC(C)=O); 1.24 ns (in CCOCC). Moreover, the fluorescence lifetime reads like this: (in CN(C)C=O) 1.28 ns; (in CO) 1.26 ns; (in COCCOC) 0.88 ns; (in CS(C)=O) 1.26 ns; (in Cc1ccccc1) 1.04 ns; (in Cc1ccccc1C) 1.07 ns. For the same molecule, the fluorescence lifetime is 0.79 ns (in ClC(Cl)Cl); 1.23 ns (in ClCCl); 1.14 ns (in NC=O); 1.28 ns (in OC1CCCCC1); 1.13 ns (in OCCO); 1.08 ns (in c1ccccc1).
Turning to `Cc1cc(C)c2nc3c(=O)[nH]c(=O)[nH]c3nc2c1`, the fluorescence lifetime (in CC#N) amounted to 1.24 ns.
For `Nc1ccccn1`, the fluorescence lifetime runs as follows: (in C1CCCCC1) 24.2 ns; (in CC#N) 5 ns; (in CCO) 5.1 ns; (in CCOCC) 10.8 ns; (in O) 24.4 ns.
In the case of `COc1ccc2c(C=C(C#N)C#N)cc3ccc4cc(C=C(C#N)C#N)c5ccc(OC)cc5c4c3c2c1`, the fluorescence lifetime (in ClC(Cl)Cl) came out at 1.5 ns.
On to `C=Cc1cc(OC)cc(OC)c1`, for which the fluorescence lifetime was found to be 3.8 ns (in C1CCCCC1) and 6.9 ns (in CC#N).
On to `COc1ccc([Si](C)(C)C)c2ccccc12`, for which the fluorescence lifetime (in C1CCCCC1) was 10 ns.
In turn, `Cc1c(C2=[N+]3C(=Cc4c(C)c5ccccc5n4[B-]3(F)F)c3ccccc32)[nH]c2ccccc12` showed a fluorescence lifetime (in ClCCl) of 1.22 ns.
As for `COC(=O)C(NC(=O)OC(C)(C)C)c1ccc2oc(-c3ccc(N(C)C)cc3OC)nc2c1` (centres undefined), the fluorescence lifetime reads like this: (in CC1CCCCC1) 1.25 ns; (in CC#N) 1.24 ns; (in CO) 1.32 ns.
`CC(C)(C)c1ccc(-n2c(-c3ccc(N(c4ccc(-c5ccc(N(c6ccc(-c7nc8c9ccccc9c9ccccc9c8n7-c7ccc(C(C)(C)C)cc7)cc6)c6ccc(-c7nc8c9ccccc9c9ccccc9c8n7-c7ccc(C(C)(C)C)cc7)cc6)cc5)cc4)c4ccc(-c5nc6c7ccccc7c7ccccc7c6n5-c5ccc(C(C)(C)C)cc5)cc4)cc3)nc3c4ccccc4c4ccccc4c32)cc1` yielded a fluorescence lifetime (in ClCCl) of 3.8 ns.
For the setting “in ClCCl”, `F[B-]1(F)n2c(cc3c4ccccc4c4ccccc4c32)-c2ccc3ccccc3[n+]21` registered a fluorescence lifetime of 4.89 ns.
Under “in ClCCl”, `C[Si]1(C)c2cc(-c3ccc(-c4cccs4)s3)ccc2C=Cc2ccc(-c3ccc(-c4cccs4)s3)cc21` displayed a fluorescence lifetime of 0.94 ns.
`COC(=O)C[C@H](Cc1c[nH]c2ccccc12)NC(=O)[C@H](CC(=O)N[C@@H](CC1=CCc2ccccc21)C(=O)OC)NC(=O)[C@H](Cc1c[nH]c2ccccc12)NC(=O)OC(C)(C)C`: the fluorescence lifetime (in CC#N) stood at 2.67 ns, the fluorescence lifetime (in CCOC(C)=O) turned out to be 2.08 ns and the fluorescence lifetime (in CO) stood at 1.86 ns.
`c1ccc(/C(=C(\c2ccccc2)c2ccccc2-c2ccccc2)c2ccccc2-c2ccccc2)cc1` returned a fluorescence lifetime (in C1CCOC1) of 4.7 ns.
As to `CCN1\C(=C/C=C/C=C/C2=[N+](CC)c3ccc4cc(Br)ccc4c3C2(C)C)C(C)(C)c2c1ccc1cc(Br)ccc21`, the fluorescence lifetime runs as follows: (in C1CCOC1) 1.37 ns; (in CC#N) 1.01 ns; (in CC(C)=O) 1.12 ns; (in CCO) 1.03 ns; (in CN(C)C=O) 1.39 ns; (in CO) 0.84 ns. For the same molecule, the fluorescence lifetime is, setting by setting: (in CS(C)=O) 1.5 ns; (in ClCCl) 1.46 ns.
For the setting “in ClC(Cl)Cl”, `Cc1ccc(/C2=c3\cc/c(o3)=C(\c3ccc(C)cc3)c3ccc([nH]3)-c3ccc4n3[P-](=O)(=O)[N+]3=C(C=CC3=C4c3ccc[nH]3)c3ccc2[nH]3)cc1` gave a fluorescence lifetime of 4 ns.
Turning to `CCN(CC)c1ccc2cc(-c3nc4c5ccccc5c5ccccc5c4n3-c3ccc(C(C)(C)C)cc3)c(=O)oc2c1`, the fluorescence lifetime (in ClCCl) was 12.6 ns.
Consider `COc1ccc(C2=c3sc(-c4ccc(OC)cc4)c(-c4ccc(OC)cc4)c3=[N+]3C2=Nc2c(-c4ccc(OC)cc4)c4sc(-c5ccc(OC)cc5)c(-c5ccc(OC)cc5)c4n2[B-]3(F)F)cc1`, for which the fluorescence lifetime (in ClC(Cl)Cl) stood at 1.53 ns.
In the case of `CC1=C(Br)C(C)=[N+]2C1=C(c1c(-c3ccccn3)nc3ccccn13)c1c(C)c(Br)c(C)n1[B-]2(F)F`, the fluorescence lifetime (in ClCCl) amounted to 0.9 ns.
Still for that read-out and setting: as for `CCOc1cccc(-c2nc3c(c4c2-c2ccccc2CC4)-c2ccccc2CC3)c1O`, the figure is 0.65 ns.
Take `CC(C)(C)c1ccc2c(c1)c1cc(C(C)(C)C)ccc1n2-c1cc(N2c3ccccc3C(c3ccccc3)(c3ccccc3)c3ccccc32)cc(-n2c3ccc(C(C)(C)C)cc3c3cc(C(C)(C)C)ccc32)c1C#N`: where the note is “in Cc1ccccc1”, the fluorescence lifetime came out at 14.2 ns.
For the setting “in ClC(Cl)Cl”, `CCCCCCN1C(=O)c2cccc3cc(/N=C\c4ccc(N5CCOCC5)cc4)cc(c23)C1=O` displayed a fluorescence lifetime of 3.84 ns.
`CCCCC(CC)CN1C(=O)c2cc(Oc3ccc(OC)cc3)c3c4c(Cl)cc5c6c(cc(Cl)c(c7c(Oc8ccc(OC)cc8)cc(c2c37)C1=O)c64)C(=O)N(c1c(C(C)C)cccc1C(C)C)C5=O` (centres undefined): the fluorescence lifetime (in Cc1ccccc1) came to 0.56 ns.
`NC(=O)C1=CN([C@H]2C[C@H](O)[C@@H](COP(=O)([O-])OP(=O)([O-])OC[C@H]3O[C@@H](n4cnc5c(N)ncnc54)C[C@@H]3O)O2)C=CC1` yielded a fluorescence lifetime (in O) of 0.4 ns.
Under “in CCO”, `c1ccc(-c2nnc(-c3ccc(-n4c5ccccc5c5ccccc54)cc3)o2)cc1` returned a fluorescence lifetime of 2.01 ns.
The molecule `Cc1ccc(N(CC(=O)[O-])CC(=O)[O-])cc1OCCOc1cc(-c2cc3ccc(C(=O)[O-])cc3[nH]2)ccc1N(CC(=O)[O-])CC(=O)[O-]` had a fluorescence lifetime (in O) of 1.4 ns.
`CC1(C)C(/C=C/C2=C(Cl)C(=C/C=C3/N(CCCCS(=O)(=O)[O-])c4ccc5ccccc5c4C3(C)C)/CCC2)=[N+](CCCCS(=O)(=O)[O-])c2ccc3ccccc3c21`: the fluorescence lifetime (in CC(C)=O) stood at 0.43 ns; the fluorescence lifetime (in CCO) worked out at 0.38 ns; the fluorescence lifetime (in CO) worked out at 0.25 ns; the fluorescence lifetime (in CS(C)=O) was found to be 0.5 ns; the fluorescence lifetime (in ClC(Cl)Cl) amounted to 0.73 ns; the fluorescence lifetime (in ClCCl) is 0.59 ns. This molecule also registered a fluorescence lifetime (in O) of 0.13 ns.
Molecule `c1ccc(-c2nc(-c3ccccc3)nc(-c3ccc(N4c5ccccc5C5(c6ccccc6-c6ccccc65)c5ccccc54)cc3)n2)cc1` came in with a fluorescence lifetime (in O=P(c1ccccc1)(c1ccccc1)c1ccccc1Oc1ccccc1P(=O)(c1ccccc1)c1ccccc1) of 33 ns.
As for `FC(F)(F)c1ccc(/C=C/c2ccc(-c3nnc(-c4ccc(-c5cc6ccccc6s5)cc4)o3)cc2)cc1`, the fluorescence lifetime is 0.57 ns (in Cc1ccccc1) and 0.7 ns (in ClC(Cl)Cl).
Take `COc1ccccc1-c1c(-c2ccccc2O)nc(-c2ccc(C(F)(F)F)cc2)n1-c1ccc(C)cc1`: the fluorescence lifetime is, setting by setting: (in C1CCOC1) 2.82 ns; (in CC(C)O) 1.8 ns; (in CO) 1.5 ns; (in CS(C)=O) 2.2 ns; (in ClC(Cl)Cl) 0.96 ns; (in ClCCl) 3.82 ns.
Take `N#Cc1ccc(C[C@H](N)C(=O)O)cc1`: the fluorescence lifetime runs as follows: (in C1CCOC1) 3.65 ns; (in CC#N) 3.73 ns; (in CC(C)O) 4 ns; (in CC(O)CO) 4.28 ns; (in CCCCO) 4.6 ns; (in CCCO) 4.4 ns. Further, the fluorescence lifetime runs as follows: (in CCO) 4.1 ns; (in CO) 6.1 ns; (in NC=O) 4.54 ns; (in O) 7 ns; (in O=CO) 8.1 ns.
As for `c1ccc2c(-n3c(-c4ccc(-c5ccc(-c6nc7c8ccccc8c8ccccc8c7n6-c6cccc7ccccc67)c6ccccc56)c5ccccc45)nc4c5ccccc5c5ccccc5c43)cccc2c1`, for the setting “in ClCCl”, the fluorescence lifetime is 1.87 ns.

The values are drawn from the Deep4Chem optical property database.
